# Marks after values point to notes of the source that are not given here.
# Key:
# Type in all cases: in vivo, mouse
# DIO mice (C57BL/6) [1] = assay: Oral Glucose Tolerance Test (OGTT) in DIO mice; conditions: male DIO mice, OGTT (2 g/kg) 16 hours post injection
# Experimental: Diet-induced obese (DIO) mouse model is a model of insulin resistance. Five to six months old male DIO mice (C57BL/6) from Taconic Biosciences are used in this study. Animals are individually housed in a temperature-controlled (24° C.) facility with a 12 hour light/dark cycle (lights on 06:00), and free access to food and water. The acclimation period to the facility is two weeks. The day before the study, animals are randomized into groups based on their body weight. That same afternoon, animals are fasted in clean cages and dosed with vehicle (40 mM Tris-HCl, pH 8.0) or test articles by subcutaneous injection. The following morning, 16 hours post the peptide injection, fasting body weights are obtained to calculate glucose doses. Blood samples are taken to measure time zero glucose. Animals are then given an oral gavage of glucose (2 g/kg). Two glucose readings via glucometers were obtained at 15, 30, 60 and 120 minutes post oral glucose. The average of two glucose readings is reported at each time point and an area under the curve is calculated. Statistics were analyzed using ANOVA with Dunnett's comparison by JMP 6; significance is denoted at p≤0.05 vs. vehicle.
# DIO mice (C57BL/6) [2] = assay: Effects on energy expenditure in DIO mice (indirect calorimetry); conditions: for Cumulative Heat (Kcal/kg lean mass/3 day): test article 15 nmol/kg, semaglutide 60 nmol/kg sc every three days
# Experimental: Seven to eight months old male DIO mice (C57BL/6) weighing 45-50 g are used in this study to assess the effect of compounds of the present invention on energy metabolism. Animals are individually housed in a temperature-controlled (24° C.) facility with a 12 hour light/dark cycle (lights on 22:00), and free access to food (TD95217)(Teklad) and water. After 2 weeks acclimation to the facility, mice are randomized to treatment groups (N=6/group) based on body weight so each group has similar starting mean body weight. Animals are placed in a PhenoMaster/LabMaster calorimeter (TSE Systems, Chesterfield, Mo.) for 8 days of acclimation.
# Heat and […] (RER) are measured by indirect calorimetry as described using an open-circuit calorimetry system. RER is the ratio of the volume of CO2 produced (VCO2) to the volume of O2 consumed (VO2). Heat is calculated with lean body weight considered. The energy expenditure is kcal/kg/3 day and expressed as mean±SEM of 6 mice per group. Statistical significance is assessed by two-way ANOVA followed by Tukey's multiple comparison test.
# DIO mice (C57BL/6) [3] = assay: Acute treatment in DIO mice (PCSK9, FGF-21, cholesterol)
# Experimental: In order to investigate metabolic pathways involved with the treatment of compounds of the present invention independent of weight loss, compounds are tested in DIO mice (C57BL/6) acutely. The mice used are three to four months old on a high fat diet for at least 4 weeks. Animals are individually housed in a temperature-controlled (24° C.) facility with a 12 hour light/dark cycle (lights on 6:00), and free access to food and water. Vehicle or testing compounds were administered to mice by subcutaneous injection at 16:00 the day before the study day. Animals were sacrificed 16 hours later to collect blood via cardia puncture. Statistics are analyzed using ANOVA with Dunnett's comparison for JMP-6. Significance is denoted at p≤0.05 vs vehicle.
# Food intake was decreased to a similar level in all treatment groups, which may indicate that changes in cholesterol, PCSK9 and FGF-21 are food-intake independent.
# DIO mice (C57BL/6) [4] = assay: Chronic treatment in DIO mice (body weight, fat, food intake)
# Experimental: The effects on food intake and body weight/fat are evaluated in DIO mice. Five to six months old DIO mice (C57BL/6) from Taconic Biosciences are used in this study. Animals are individually housed in a temperature-controlled (24° C.) facility with a 12 hour light/dark cycle (lights on 6:00), and free access to food and water. The mice are acclimated to the facility for two weeks. The day before the study start, fat mass is measured by nuclear magnetic resonance (NMR) using an Echo Medical System (Houston, Tex.) instrument. The mice are randomized to treatment groups (N=7/group) based on body weight and fat mass so each group had similar starting mean body weight and fat mass. […] SC injections are made on Day 1, 4, 7, 10, and 13. Body weight and food intake are measured right before each injection throughout the study. Percent changes in body weight are calculated as follows: […]
# At the completion of the study, total fat mass is measured again by NMR. Statistics are analyzed using ANOVA with Dunnett's comparison by JMP 6. Significance is denoted at p≤0.05 vs. vehicle.
# [5] = test system: STZ-treated DIO mice (C57BL/6); assay: OGTT in Streptozotocin (STZ)-treated DIO mice; conditions: male STZ mice, OGTT (2 g/kg) 16 hours post injection
# Experimental: STZ-treated mouse model is a model of early diabetes. Five to six months old male DIO mice (C57BL/6) from Taconic Biosciences are used in this study. Animals are individually housed in a temperature-controlled (24° C.) facility with a 12 hour light/dark cycle (lights on 6:00), and free access to food and water. After two weeks acclimation to the facility, mice are injected intraperitoneally with 50 mg/kg of STZ on Tuesday and Friday. Two weeks post the injection, animals with glucose levels between 180-300 mg/dL at 09:00 are selected for the OGTT study. The day before the study, animals are randomized into groups based on body weight and their glucose levels. Animals are treated with vehicle or testing articles by subcutaneous injection just prior to food removal overnight (16:00). The following morning at 08:00, 16 hours post compound injection, blood samples are taken to measure time zero glucose. Animals are given an oral dose of glucose of 2 g/kg. Glucose is measured 15, 30, 60, and 120 minutes post the oral glucose challenge. Statistics are analyzed using ANOVA with Dunnett's comparison by JMP 6. Significance is denoted at p≤0.05 vs. vehicle.
# [6] = 30 nmol/kg sc, 16 hours post dose
# [7] = 30 nmol/kg sc every three days for 15 days
# [8] = 60 nmol/kg sc every three days for 15 days
substance,measurement,setting,value
semaglutide [reference compound],Glucose AUC (% of vehicle),DIO mice (C57BL/6) [1]; 1 nmol/kg sc,59* % of vehicle
same,Glucose AUC (% of vehicle),DIO mice (C57BL/6) [1]; 3 nmol/kg sc,51* % of vehicle
same,Glucose AUC (% of vehicle),DIO mice (C57BL/6) [1]; 10 nmol/kg sc,38* % of vehicle
same,metabolic rate,"DIO mice (C57BL/6) [2]; DIO mice, chronic treatment",no effect on metabolic rate
same,Cumulative Heat (Kcal/kg lean mass/3 day),DIO mice (C57BL/6) [2]; Day 1 to Day 4,1973 ± 51 Kcal/kg lean mass/3 day
same,Cumulative Heat (Kcal/kg lean mass/3 day),DIO mice (C57BL/6) [2]; Day 4 to Day 7,2018 ± 54 Kcal/kg lean mass/3 day
same,Cumulative Heat (Kcal/kg lean mass/3 day),DIO mice (C57BL/6) [2]; Day 7 to Day 10,2151 ± 48 Kcal/kg lean mass/3 day
same,Cumulative Heat (Kcal/kg lean mass/3 day),DIO mice (C57BL/6) [2]; Day 10 to Day 13,2138 ± 46 Kcal/kg lean mass/3 day
same,Cholesterol (% of vehicle),DIO mice (C57BL/6) [3]; [6],117.6 % of vehicle
same,FGF-21 (% of vehicle),DIO mice (C57BL/6) [3]; [6],75 % of vehicle
same,PCSK9 (% of vehicle),DIO mice (C57BL/6) [3]; [6],115.3 % of vehicle
same,"serum cholesterol, PCSK9 and FGF-21 levels",DIO mice (C57BL/6) [3]; acute treatment,does not decrease serum cholesterol and PCSK9 levels and increase FGF-21 levels
same,Body Fat (% change vs. vehicle from Day 1),DIO mice (C57BL/6) [4]; [7],−20* %
same,Body Weight (% change vs. vehicle from Day 1),DIO mice (C57BL/6) [4]; [7],−8%
same,Body Fat (% change vs. vehicle from Day 1),DIO mice (C57BL/6) [4]; [8],−29* %
same,Body Weight (% change vs. vehicle from Day 1),DIO mice (C57BL/6) [4]; [8],−12* %
same,Glucose AUC (% of vehicle),[5]; 1 nmol/kg sc,72* % of vehicle
same,Glucose AUC (% of vehicle),[5]; 3 nmol/kg sc,53* % of vehicle
same,Glucose AUC (% of vehicle),[5]; 10 nmol/kg sc,35* % of vehicle

# Source: patent US9938335B2, “Glucagon and GLP-1 co-agonist compounds” (Eli Lilly and Company, priority 2015, dated 2018)
